Reference: patent US5061711A, “Method of curing liver diseases by using pyrrolo quinoline quinone triesters and novel pyrrolo quinoline quinone triesters” (Mitsubishi Gas Chemical Company, Inc., priority 1989, dated 1991)

How the values were obtained:
mice [1] = assay: Kidney toxicity (2) determined by blood examination; format: in vivo, mouse; settings: average of eight mice; for Creatinine in serum: None: 0.8; for Urea nitrogen in serum: None: 23; for Glucose in serum: None: 93
Description: (4) Kidney toxicity (2) determined by blood examination:
The dosage per kg of body weight of mouse was 150, 400 mg and 100 mg.
(§1) After lapse of one day from the administration, the mice were fasted (only water was given) and then, after 15 hours, blood was collected and serum was obtained therefrom. Glucose, urea nitrogen and creatinine in the serum were examined by clinical examination reagent (trademark : FUJI DRYCHEMSLIDE manufactured by Fuji Photo Film Co., Ltd.). The results are shown by average value of eight mice in Table 4.

Solubility = format: physicochemical
mice [2] = assay: Kidney toxicity determined by blood examination; format: in vivo, mouse; settings: for Creatinine in serum / Urea nitrogen in serum / Glucose in serum: average of eight mice; for Creatinine in serum: None: 0.4; for Urea nitrogen in serum: None: 20; for Glucose in serum: None: 78
Description: (3) Kidney toxicity determined by blood examination:
as §1, with “then” for “then,”, “18” for “15”, “(trademark:” for “(trademark :”, “3.” for “4.”

## COC(=O)c1cc(C(=O)OC)c2c(n1)C(=O)C(=O)c1cc(C(=O)OC)[nH]c1-2 [PQQ trimethyl ester]
Mice [1]; 150 mg/kg
  Creatinine in serum: 0.9 mg/dL
  Urea nitrogen in serum: 22 mg/dL
  Glucose in serum: 72 mg/dL
Mice [1]; 400 mg/kg
  Creatinine in serum: 0.7 mg/dL
  Urea nitrogen in serum: 20 mg/dL
  Glucose in serum: 55 mg/dL
Mice [1]; 1000 mg/kg
  Creatinine in serum: 0.7 mg/dL
  Urea nitrogen in serum: 17 mg/dL
  Glucose in serum: 60 mg/dL

## C=CCOC(=O)c1cc(C(=O)OCC=C)c2c(n1)C(=O)C(=O)c1cc(C(=O)OCC=C)[nH]c1-2 [PQQ triallyl ester]
Solubility; acetone
  Solubility: Very soluble
Solubility; ethanol
  Solubility: Very soluble
Solubility; methanol
  Solubility: Very soluble
Solubility; water
  Solubility: hardly soluble
Mice [2]; i.p. 40 mg/kg
  Creatinine in serum: 0.3 mg/dL
  Urea nitrogen in serum: 12 mg/dL
  Glucose in serum: 42 mg/dL
Mice [2]; i.p. 80 mg/kg
  Creatinine in serum: 0.2 mg/dL
  Urea nitrogen in serum: 12 mg/dL
  Glucose in serum: 47 mg/dL
Mice [2]; i.p. 160 mg/kg
  Creatinine in serum: 0.2 mg/dL
  Urea nitrogen in serum: 10 mg/dL
  Glucose in serum: 59 mg/dL
Mice [2]; i.p. 200 mg/kg
  Creatinine in serum: 0.1 mg/dL
  Urea nitrogen in serum: 9 mg/dL
  Glucose in serum: 64 mg/dL
Mice [2]; i.p., versus no compound
  creatinine in serum (in words): nearly the same
  glucose in serum (in words): nearly the same
  urea nitrogen in serum (in words): nearly the same
Mice [2]; mouse, in vivo, ip
  kidney toxicity (in words): no kidney toxicity was observed
